Measured values from US7863446B2, “Heterocycles” (Orchid Research Laboratories Limited, priority 2006, dated 2011).

Assays:
COX-2 = molecular target: T1, COX-2 (Homo sapiens, UniProt P35354); test: Human whole blood assay (PGE-2 inhibition, COX-2); assay type: cell-based; details: LPS stimulated human whole blood, NA = No activity, read-out: % PGE-2 Inhibition in hWBA
T1 construct: Fresh blood was collected in tubes containing sodium heparin by vein puncture from healthy male volunteers; endogenous in cells; host or cells: human whole blood from healthy male volunteers, stimulated with LPS
T1 sequence (P35354 18-604): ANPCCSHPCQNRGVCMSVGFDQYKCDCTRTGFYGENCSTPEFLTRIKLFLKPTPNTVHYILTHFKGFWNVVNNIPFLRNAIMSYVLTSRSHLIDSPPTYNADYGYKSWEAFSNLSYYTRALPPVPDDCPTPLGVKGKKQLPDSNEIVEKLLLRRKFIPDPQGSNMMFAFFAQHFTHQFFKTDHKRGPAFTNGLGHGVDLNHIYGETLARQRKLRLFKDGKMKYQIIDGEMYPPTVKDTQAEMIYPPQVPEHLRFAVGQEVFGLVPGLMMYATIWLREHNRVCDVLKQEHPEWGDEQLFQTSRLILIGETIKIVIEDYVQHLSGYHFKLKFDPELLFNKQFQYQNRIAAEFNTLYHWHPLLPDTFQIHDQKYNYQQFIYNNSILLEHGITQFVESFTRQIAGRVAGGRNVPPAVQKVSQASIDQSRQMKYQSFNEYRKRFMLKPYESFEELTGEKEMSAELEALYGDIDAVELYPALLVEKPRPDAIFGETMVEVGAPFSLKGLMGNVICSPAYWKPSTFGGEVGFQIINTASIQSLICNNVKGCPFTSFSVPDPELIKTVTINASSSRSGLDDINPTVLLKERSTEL
Method: In Vitro Evaluation of Cyclooxygenase-2 (Cox-2) Inhibition Activity
The COX-2 inhibition activities of the compounds illustrated in the examples were determined by the following method.
Human whole blood provides a protein and cell rich milieu appropriate for the study of the biochemical efficacy of anti-inflammatory compounds such as selective COX-2 inhibitors. […] This correlates with the observation that COX-2 inhibitors have no effect on prostaglandin E2 (PGE2) production in normal blood. These inhibitors were active only after incubation of human blood with lipopolysaccharide (LPS), which induces COX-2 production in the blood.
Fresh blood was collected in tubes containing sodium heparin by vein puncture from healthy male volunteers. The subjects should have no apparent inflammatory conditions and should have not taken NSAIDs for at least 7 days prior to blood collection. Blood was preincubated with aspirin in vitro (12 μg/ml, at time zero) to inactivate COX-1 for 6 hours. Then test compounds (at various concentrations) or vehicle were added to blood, the blood was stimulated with LPS B:4 (10 μg/ml) and incubated for another 18 hours at 37° C. water bath. After which the blood was centrifuged, plasma was separated and stored at −80° C. (J. Pharmacol. Exp. Ther, 271, 1705, 1994; Proc. Natl. Acad. Sci. USA, 96, 7563, 1999). The plasma was assayed for PGE2 using Cayman ELISA kit as per the procedure outlined by the manufacturer (Cayman Chemicals, Ann Arbor, USA).

TNF-α = test: LPS induced sepsis for measurement of TNF-α inhibition in mice; assay type: in vivo; details: 50 mg/kg, oral, mice, serum 90 minutes after LPS
Method: LPS Induced Sepsis for Measurement of TNF-α Inhibition in Mice
The LPS induced sepsis model in mice was performed as described by Les sekut et al (J Lab Clin Med 1994; 124:813-20). Female Swiss albino mice were selected and the body weights were equivalent within each group. The mice were fasted for 20 hours with free access to water. The mice were dosed orally with the test compound suspended in vehicle containing 0.5% Tween 80 in 0.25% Carboxy-methylcellulose sodium salt. The control mice were administered the vehicle alone. After 30 minutes of oral dosing, mice were injected with 500 μg of Lipopolysaccharide (Escherichia coli, LPS: B4 from Siga) in phosphate buffer saline solution into the intraperitoneal cavity of the mice. After 90 minutes of LPS administration mice were bled via retro-orbital sinus puncture. Blood samples were stored overnight at 4° C. Serum samples were collected by centrifuging the samples at 4000 rpm for 15 minutes at 4° C. Immediately the serum samples were analysed for TNF-α levels using commercially available mouse TNF-α ELISA kit (Amersham Biosciences) and assay was performed by the manufacturer instruction.
ED50 Measurement of TNF alpha Inhibition in Mice Sepsis Model

HCT-116 = test: Anti-cancer screen (MTT), HCT-116; assay type: cell-based; details: Homo sapiens, HCT-116, 48 hours
Method: (§1) Experimental drugs are screened for anti-cancer activity in three cell lines for their GI50, TG1 and LC50 values (using 5 concentrations for each compound). The cell lines are maintained in DMEM containing 10% fetal bovine serum. 96 well microtiter plates are inoculated with cells in […] for 24 hours at 37° C., 5% CO2, 95% air and 100% relative humidity. 5000 HCT116 cells/well, 5000 NCIH460 cells/well, 10000 U251 cells/well and 5000 MDAMB231 cells/well are plated. A separate plate with these cell lines is also inoculated to determine cell viability before the addition of the compounds (T0).
(§2) Addition of Experimental Drugs
(§3) Following 24-hour incubation, experimental drugs are added to the 96 well plates. Each plate contains one of the above cell lines and the following in triplicate: 5 different concentrations (0.01, 0.1, 1, 10 and 100 μM) of 4 different compounds, appropriate dilutions of a cytotoxic standard and control (untreated) wells. Compounds are dissolved in dimethylsulfoxide (DMSO) to make 20 mM stock solutions, on the day of drug addition and frozen at −20° C. Serial dilutions of these 20 mM stock solutions are made in complete growth medium such that 100 μL of these drug solutions in medium, of final concentrations equaling 0.01, 0.1, 1, 10 and 100 μM can be added to the cells in triplicate. Standard drugs whose anti-cancer activity has been well documented and which are regularly used are doxorubicin and SAHA.
(§4) Cells are incubated with compounds for 48 hours followed by the addition of 10 μL 3-(4,5-Dimethyl-2-thiazolyl)-2,5-diphenyl-2H-tetrazolium (MTT) solution per well and a subsequent incubation at 37° C., 5% CO2, 95% air and 100% relative humidity, protected from light. After 4 hours, well contents are aspirated carefully followed by addition of 150 μL DMSO per well. Plates are agitated to ensure solution of the formazan crystals in DMSO and absorbance read at 570 nm.
(§5) Calculation of GI50, TGI and LC50
(§6) Percent growth is calculated for each compound's concentration relative to the control and zero measurement wells (T0; viability right before compound addition).
(§7) If a test well's O.D. value is greater than the T0 measurement for that cell line % Growth=(test−zero)/(control−zero)×100
(§8) If a test well's O.D. value is lower than the T0 measurement for that cell line, then % Growth=(test−zero)/zero×100 Plotting % growth versus experimental drug concentration, GI50 is the concentration required to decrease % growth by 50%; TGI is the concentration required to decrease % growth by 100% and LC50 is the concentration required to decrease % growth by 150%.

NCI-H460 = test: Anti-cancer screen (MTT), NCI-H460; assay type: cell-based; details: Homo sapiens, NCI-H460, 48 hours
Method: as §1, §2, §3, §4, §5, §6, §7, §8

## CNS(=O)(=O)c1ccc(-c2c(Cl)nc(C(F)(F)F)nc2-c2ccc(S(C)(=O)=O)cc2)cc1 [Example 4, 4-{4-Chloro-6-[4-(methylsulfonyl)phenyl]-2-(trifluoromethyl)pyrimidin-5-yl}-N-methylbenzenesulfonamide]
COX-2; 0.25 μM
  inhibition at 0.25 µM: 6.1%
COX-2; 1 μM
  inhibition at 1 µM: 22.9%
COX-2; 10 μM
  inhibition at 10 µM: 35.6%
TNF-α
  TNF-α Inhibition (%) at 50 mg/kg: 38.37%
HCT-116
  GI50: 2 µM
NCI-H460
  GI50: 1.65 µM
